Source: ChEMBL document CHEMBL1909046, “DrugMatrix in vitro pharmacology data”

Assays:
[1] = biological target: T1, Alpha-1A adrenergic receptor (Rattus norvegicus, UniProt P43140); experiment: DRUGMATRIX: Alpha-1A adrenergic receptor radioligand binding (ligand: prazosin); format: cell membranes, Wistar, Submaxillary gland, Membrane; settings: Not Active = under 50% inhibition at 10 µM
T1 sequence (P43140 whole entry): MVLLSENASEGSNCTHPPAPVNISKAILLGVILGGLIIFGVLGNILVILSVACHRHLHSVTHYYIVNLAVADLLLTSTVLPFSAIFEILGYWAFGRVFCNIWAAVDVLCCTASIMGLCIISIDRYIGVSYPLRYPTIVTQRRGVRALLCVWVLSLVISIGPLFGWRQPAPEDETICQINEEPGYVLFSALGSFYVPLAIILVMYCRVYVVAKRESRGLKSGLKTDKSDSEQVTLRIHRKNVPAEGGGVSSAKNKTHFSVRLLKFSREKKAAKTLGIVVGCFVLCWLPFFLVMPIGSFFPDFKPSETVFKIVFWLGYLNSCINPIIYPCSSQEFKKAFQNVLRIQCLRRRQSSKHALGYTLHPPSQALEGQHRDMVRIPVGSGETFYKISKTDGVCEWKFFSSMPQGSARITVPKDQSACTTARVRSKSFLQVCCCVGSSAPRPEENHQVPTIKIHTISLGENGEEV

[2] = biological target: Aldo-keto reductase family 1 member B1 (Rattus norvegicus, UniProt P07943); experiment: biochemical; format: tissue-based, Lens of camera-type eye;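 note: inhibition of aldose reductase enzyme activity, measured with DL-glyceraldehyde as the substrate; in other assays of this panel Not Active means under 50% inhibition at 10 µM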
[3] = DRUGMATRIX: Atrial Natriuretic Factor (ANF) radioligand binding (ligand: [125I] ANF (rat)); format: cell membranes, Cavia porcellus, Dunkin-Hartley, Adrenal gland, Membrane; settings: Not Active = under 50% inhibition at 10 µM
[4] = biological target: T2, C-C chemokine receptor type 4 (Homo sapiens, UniProt P51679); format: cell membranes, Membrane; settings: chem-1; note: in other assays of this panel Not Active means under 50% inhibition at 10 µM
T2 sequence (P51679 whole entry): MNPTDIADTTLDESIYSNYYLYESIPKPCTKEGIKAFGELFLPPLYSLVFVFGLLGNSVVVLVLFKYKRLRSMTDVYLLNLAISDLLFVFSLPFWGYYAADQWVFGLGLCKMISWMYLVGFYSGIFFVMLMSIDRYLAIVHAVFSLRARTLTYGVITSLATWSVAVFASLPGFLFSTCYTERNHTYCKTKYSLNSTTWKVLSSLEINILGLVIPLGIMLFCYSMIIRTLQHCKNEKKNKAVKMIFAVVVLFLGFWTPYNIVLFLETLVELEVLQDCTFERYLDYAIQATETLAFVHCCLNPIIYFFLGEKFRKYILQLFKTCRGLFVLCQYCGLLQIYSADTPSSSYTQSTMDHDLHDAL

[5] = DRUGMATRIX: Glutamate, AMPA radioligand binding (ligand: [3H] AMPA); format: cell membranes, Rattus norvegicus, Wistar, Cerebral cortex, Membrane; settings: Not Active = under 50% inhibition at 10 µM
[6] = DRUGMATRIX: Leukotriene, BLT (LTB4) radioligand binding (ligand: [3H]LTB4); format: cell membranes, Membrane; settings: u-937; Not Active = under 50% inhibition at 10 µM
[7] = biological target: T3, Neuropeptide Y receptor type 1 (Homo sapiens, UniProt P25929); format: cell membranes, Membrane; settings: sk-n-mc; note: in other assays of this panel Not Active means under 50% inhibition at 10 µM
T3 sequence (P25929 whole entry): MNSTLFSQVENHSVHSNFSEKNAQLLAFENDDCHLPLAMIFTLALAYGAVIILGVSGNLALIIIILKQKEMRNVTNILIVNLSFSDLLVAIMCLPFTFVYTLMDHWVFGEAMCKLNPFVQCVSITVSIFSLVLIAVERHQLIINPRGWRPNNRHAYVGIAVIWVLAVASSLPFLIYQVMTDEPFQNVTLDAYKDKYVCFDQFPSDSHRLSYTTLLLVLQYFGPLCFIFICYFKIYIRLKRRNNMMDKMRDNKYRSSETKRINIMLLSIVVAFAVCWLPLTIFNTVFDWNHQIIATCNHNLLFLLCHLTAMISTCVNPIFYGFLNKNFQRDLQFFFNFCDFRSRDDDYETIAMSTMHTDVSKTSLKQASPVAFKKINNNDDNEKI

[8] = DRUGMATRIX: Phorbol Ester radioligand binding (ligand: [3H] PDBu); format: cell membranes, Mus musculus, ICR, Brain, Membrane; settings: Not Active = under 50% inhibition at 10 µM

Compound | IC50 [1] | IC50 [2] | IC50 [3] | Ki [3] | IC50 [4] | IC50 [5] | Ki [5] | IC50 [6] | Ki [6] | IC50 [7] | IC50 [8] | Ki [8] | IC50 ([2]; read-out: IC50) [µM]
C[C@]12CCC(=O)C=C1CC[C@@H]1[C@@H]2[C@@H](O)C[C@@]2(C)[C@H]1CC[C@]2(O)C(=O)CO [HYDROCORTISONE] | Not Active | Not Active | Not Active | Not Active | Not Active | Not Active | Not Active | Not Active | Not Active | Not Active | Not Active | Not Active | 
C/C=C\c1ccc(O)c(OC)c1 [ISOEUGENOL] | Not Active | Not Active | Not Active | Not Active | Not Active | Not Active | Not Active | Not Active | Not Active | Not Active | Not Active | Not Active | 
NC[C@H]1O[C@H](O[C@H]2[C@H](O)[C@@H](O[C@H]3O[C@H](CO)[C@@H](O)[C@H](N)[C@H]3O)[C@H](N)C[C@@H]2N)[C@H](O)[C@@H](O)[C@@H]1O [KANAMYCIN] | Not Active | Not Active | Not Active | Not Active | Not Active | Not Active | Not Active | Not Active | Not Active | Not Active | Not Active | Not Active | 
CC[C@H](C)C(=O)O[C@H]1C[C@@H](C)C=C2C=C[C@H](C)[C@H](CC[C@@H]3C[C@@H](O)CC(=O)O3)[C@H]21 [LOVASTATIN] | Not Active | Not Active | Not Active | Not Active | Not Active | Not Active | Not Active | Not Active | Not Active | Not Active | Not Active | Not Active | 
CC(C(=O)O)c1ccc(CC2CCCC2=O)cc1 (stereo not given) [LOXOPROFEN] | Not Active | Not Active | Not Active | Not Active | Not Active | Not Active | Not Active | Not Active | Not Active | Not Active | Not Active | Not Active | 
Cc1cccc(Nc2ccccc2C(=O)O)c1C [MEFENAMIC ACID] | Not Active | Not Active | Not Active | Not Active | Not Active | Not Active | Not Active | Not Active | Not Active | Not Active | Not Active | Not Active | 
CC(=O)O[C@]1(C(C)=O)CC[C@H]2[C@@H]3C=C(C)C4=CC(=O)CC[C@]4(C)[C@H]3CC[C@@]21C [MEGESTROL ACETATE] | Not Active | Not Active | Not Active | Not Active | Not Active | Not Active | Not Active | Not Active | Not Active | Not Active | Not Active | Not Active | 
COc1ccccc1OCC(O)COC(N)=O (stereo not given) [METHOCARBAMOL] | Not Active | Not Active | Not Active | Not Active | Not Active | Not Active | Not Active | Not Active | Not Active | Not Active | Not Active | Not Active | 
CN(Cc1cnc2nc(N)nc(N)c2n1)c1ccc(C(=O)N[C@@H](CCC(=O)O)C(=O)O)cc1 [METHOTREXATE] | Not Active | Not Active | Not Active | Not Active | Not Active | Not Active | Not Active | Not Active | Not Active | Not Active | Not Active | Not Active | 
COC(=O)c1ccccc1O [METHYL SALICYLATE] | Not Active | Not Active | Not Active | Not Active | Not Active | Not Active | Not Active | Not Active | Not Active | Not Active | Not Active | Not Active | 
COc1ccc2cc(CCC(C)=O)ccc2c1 [NABUMETONE] | Not Active | Not Active | Not Active | Not Active | Not Active | Not Active | Not Active | Not Active | Not Active | Not Active | Not Active | Not Active | 
O=C(O)c1cccnc1 [NIACIN] | Not Active | Not Active | Not Active | Not Active | Not Active | Not Active | Not Active | Not Active | Not Active | Not Active | Not Active | Not Active | 
CNC(=C[N+](=O)[O-])NCCSCc1csc(CN(C)C)n1 [NIZATIDINE] | Not Active | Not Active | Not Active | Not Active | Not Active | Not Active | Not Active | Not Active | Not Active | Not Active | Not Active | Not Active | 
C[C@]12C/C(=C/O)C(=O)C[C@@H]1CC[C@@H]1[C@@H]2CC[C@@]2(C)[C@H]1CC[C@]2(C)O [OXYMETHOLONE] | Not Active | Not Active | Not Active | Not Active | Not Active | Not Active | Not Active | Not Active | Not Active | Not Active | Not Active | Not Active | 
CC(C)(CO)C(O)C(=O)NCCCO (stereo not given) [PANTHENOL] | Not Active | Not Active | Not Active | Not Active | Not Active | Not Active | Not Active | Not Active | Not Active | Not Active | Not Active | Not Active | 
COc1ccc(Cc2nccc3cc(OC)c(OC)cc23)cc1OC [PAPAVERINE] | Not Active | Not Active | Not Active | Not Active | Not Active | Not Active | Not Active | Not Active | Not Active | Not Active | Not Active | Not Active | 
OCCN1CCN(CCCN2c3ccccc3Sc3ccc(Cl)cc32)CC1 [PERPHENAZINE] | Not Active | Not Active | Not Active | Not Active | Not Active | Not Active | Not Active | Not Active | Not Active | Not Active | Not Active | Not Active | 
CCCCC1C(=O)N(c2ccccc2)N(c2ccccc2)C1=O [PHENYLBUTAZONE] | Not Active | Not Active | Not Active | Not Active | Not Active | Not Active | Not Active | Not Active | Not Active | Not Active | Not Active | Not Active | 
Cc1cccc(Nc2cc(Cl)nc(SCC(=O)O)n2)c1C [PIRINIXIC ACID] | Not Active |  | Not Active | Not Active | Not Active | Not Active | Not Active | Not Active | Not Active | Not Active | Not Active | Not Active | 2.82
CC[C@H](C)C(=O)O[C@H]1C[C@H](O)C=C2C=C[C@H](C)[C@H](CC[C@@H](O)C[C@@H](O)CC(=O)O)[C@H]21 [PRAVASTATIN] | Not Active | Not Active | Not Active | Not Active | Not Active | Not Active | Not Active | Not Active | Not Active | Not Active | Not Active | Not Active | 
